For assay [1], the system named is TPA-induced mouse ear edema. Briefly: 12-O-tetradecanoylphorbol acetate (TPA)-induced murine ear edema test, topical. Format: in vivo, mouse (Swiss Webster female). The conditions noted are these: for % Change from Control, TOPICAL, TPA: TPA 10 μg/ear (footnote b), * = <0.05. The text has this:
(§1) The ability of the compounds of the invention to inhibit the lipoxygenase and/or cyclooxygenase pathways of arachidonic acid is examined in the in vivo arachidonic acid (AA)-/12-O-tetradecanoylphorbol acetate (TPA)-induced murine ear edema test.
(§2) According to this test, Swiss Webster female mice (Buckshire), approximately 8 weeks old, are placed into plastic boxes in groups of six. Eight groups of mice receive AA topically on the right ear, and another 8 groups receive TPA topically on the right ear. AA and TPA are dissolved in acetone at concentrations of 100 mg/mL and 100 μg/mL respectively. The phlogistics are applied to the right ear by the means of an automatic pipet. Volumes of 10 μL are applied to the inner and outer surfaces of the ear. […] The left ear (control) receives acetone delivered in the same manner. Oral and topical dosing regimens are as follows: (1) drugs are given 30 minutes prior to AA treatment, and (2) drugs are given 30 minutes after treatment with TPA.
(§3) Measurements are taken with Oditest calipers, 0-10 mm with 0.01 graduations. The right and left ears are measured after 1 hour AA-induced inflammation and 4 hours after TPA-induced inflammation.
(§4) The difference between right and left ear thickness is calculated and the significance is determined by a one way analysis of variance with Dunnett's comparisons to control (P=0.05). Drug effects are expressed as a percent change from control values: [formula]
(§5) The ED50 values are also given for these compounds where this has been determined.

The subject of assay [2] is AA-induced mouse ear edema. Put plainly: Arachidonic acid (AA)-induced murine ear edema test, topical. To be noted: for % Change from Control, TOPICAL, AA: AA 1 mg/ear (footnote a), * = <0.05. In kind it is in vivo, mouse (Swiss Webster female).
Description: as §1, §2, §3, §4, §5

Assay [3] has as its system synthesis of cyclooxygenase oxidation product PGE2. Briefly: Inhibition of synthesis of cyclooxygenase product PGE2 (rat polymorphonuclear leukocytes, procedure of Example 17). Format: cell-based, rat (female Wistar). The conditions noted are these: Leukocyte; rat PMN. As to the method:
(§6) Peritoneal PMN are obtained from female Wistar rats (150-250 g) that received an i.p. injection of 6% glycogen (10 mL). After 24 hours, rats are killed by CO2 asphyxiation and peritoneal cells are harvested by peritoneal lavage using Ca^++ and Mg^++ free Hanks' balanced salt solution (HBSS). The peritoneal exudate is centrifuged at 400 g for 10 minutes. After centrifugation, the lavaged fluid is removed and the cell pellet is resuspended in HBSS containing Ca^++ and Mg^++ and 10 mM L-cysteine at a concentration of 2×10^7 cells/mL. To 1 mL portions of cell suspension, test drugs or vehicle are added and incubated at 37° C. for 10 minutes. Following this preincubation, the calcium ionophore (10 μM), A23187, is added together with 0.5 μCi [^14 C] arachidonic acid and further incubated for 10 minutes. The reaction is stopped by the addition of ice cold water (3 mL) and acidifying to pH 3.5. Lipoxygenase products are then extracted twice into diethyl ether. The pooled ether extracts are evaporated to dryness under nitrogen and the residue is redissolved in a small volume of methanol and spotted on aluminum backed pre-coated thin layer chromatographic plates. The samples are then co-chromatographed with authentic reference 5-HETE, in the solvent system--hexane:ether:acetic acid (50:50:3). After chromatography, the areas associated with 5-HETE standard are identified by autoradiography, cut out and quantitated by liquid scintillation.
(§7) The procedure of Example 17 is also employed for the determination of the ability of the compounds of the invention to inhibit the synthesis of the arachidonic acid cyclooxygenase oxidation products TxB2 and PGE2.
In this assay, the procedure of Example 17 is carried out as described. […] After chromatography, the areas associated with TxB2 and PGE2 standards are identified by autoradiography, cut out and quantitated by liquid scintillation techniques.
(§8) The results are calculated as in Example 17.

The test system of assay [4] is 5-HETE synthesis by rat glycogen-elicited polymorphonuclear leukocytes. Put plainly: Inhibition of 5-HETE synthesis by rat glycogen-elicited polymorphonuclear leukocytes (lipoxygenase). Format: cell-based, rat (female Wistar). To be noted: Leukocyte, rat PMN, A23187 stimulated; for inhibition at 50 µM: read-out: >50% Inhibitory at 50 μm (5-HETE synthesis). Here is the method: The assay of this Example measures the ability of the compounds of the invention to inhibit the synthesis of 5-HETE by rat glycogen-elicited polymorphonuclear leukocytes.
as §6
The compounds of this invention are tested in this assay at a level of 50 μm, unless otherwise noted. The results are summarized in Table 1, where those compounds having an inhibition of >50% are designated by a "+". Some results are express as an IC50 value.

The test system of assay [5] is synthesis of cyclooxygenase oxidation product TxB2. Put plainly: Inhibition of synthesis of cyclooxygenase product TxB2 (rat polymorphonuclear leukocytes, procedure of Example 17). Format: cell-based, rat (female Wistar). The conditions noted are these: Leukocyte, rat PMN; for IC50: TxA2. As to the method: as §6, §7
In this assay, the procedure of Example 17 is carried out as described. However, in order to determine cyclooxygenase activity, the samples are cochromatographed with authentic reference TxB2 and PGE2 in the solvent system ethyl acetate:formic acid (80:1) and the upper phase of ethyl acetate:isoctane:acetic acid:water (110:50:20:100). After chromatography, the areas associated with TxB2 and PGE2 standards are identified by autoradiography, cut out and quantitated by liquid scintillation techniques.
as §8

For assay [6], the system named is ovalbumin induced bronchospasm. Put plainly: Inhibition of ovalbumin-induced bronchospasm mediated by endogenous mediators in sensitized guinea pigs. In kind it is in vivo, guinea pig (male Hartley). The conditions noted are these: 50 mg/kg intraduodenal, 10 minutes before intravenous ovalbumin challenge. Here is the method: The assay of this Example measures the in vivo ability of the compounds of the invention to inhibit the bronchospasm induced in guinea pigs by endogenous mediators of the bronchoconstriction.
Male Hartley strain guinea pigs weighing 250-350 g are sensitized to chicken ovalbumin (OA) (10 mg i.p.) on days 1 and 3 and used starting on day 26. The animals are anesthetized with pentobarbital sodium (50 mg/kg, i.p.), bilateral vagotomy is performed, and the jugular vein is cannulated for injection of drugs and the carotid artery for monitoring blood pressure. The trachea is cannulated for artificial ventilation by a miniature Starling pump and for indirect measurement of respiratory volume changes as described, infra. Succinylcholine (2 mg/kg, i.v.) is administered to arrest spontaneous respiration. […]
Respiratory volume changes are determined by a calibrated piston whose travel is recorded, via a linear transducer, on a Beckman Dynograph recorder. Maximal bronchoconstrictor volume is determined by clamping off the trachea at the end of the experiment. Overflow volumes at minutes 1, 3 and 5 are obtained from the recorded charts.
Area under the volume overflow curve (AUC) is estimated, using the overflow values at 1, 3 and 5 minutes, and expressed as a percentage of the maximal overflow AUC (equation 1): [formula] […]

By IC50 is commonly meant the concentration that inhibits the measured activity by half. Low readings indicate greater potency, high ones weaker potency.

On to `c1ccc2nc(COc3cccc4ccccc34)ccc2c1` [Example 10, 2-[(1-Naphthalenyloxy)methyl]quinoline], for which the “TOPICAL ED50, TPA” value in assay [1] turned out to be 0.7 mg/ear. Also, the “TOPICAL ED50, AA” value in assay [2] was 0.3 mg/ear. The IC50 is over 100 µM in assay [3], 400 nM in assay [4] and 6.3 µM in assay [5]. Also, the inhibition at 50 µM in assay [4] and in assay [5] was over 50% in each case.
With `Fc1ccccc1OCc1ccc2ccccc2n1` [Example 2, 2-[(2-Fluorophenoxy)methyl]quinoline], the “% Change from Control, TOPICAL, TPA” value in assay [1] was -42%. For the same compound, the “% Change from Control, TOPICAL, AA” value in assay [2] is listed as -40%. In addition, the inhibition at 50 µM in assay [4] and in assay [5] was over 50% in each case.
On to `c1ccc2cc(OCc3ccc4ccccc4n3)ccc2c1` [Example 9, 2-[(2-Naphthalenyloxy)methyl]quinoline], for which the inhibition at 50 µM in assay [4] and in assay [5] was over 50% in each case.
`Brc1cccc(OCc2ccc3ccccc3n2)c1` [Example 1, 2-[(3-Bromophenoxy)methyl]quinoline]: in assay [1], the “TOPICAL ED50, TPA” value was 0.7 mg/ear and the “% Change from Control, TOPICAL, TPA” value is given as -62%. Besides, in assay [2], the “TOPICAL ED50, AA” value was found to be 2.0 mg/ear and the “% Change from Control, TOPICAL, AA” value was -43%. Further, the inhibition at 50 µM in assay [4] is over 50%. Also, in assay [5], the inhibition at 50 µM was over 50%. The “% Inhibition of MAX AUC” value in assay [6] is given as over 50%.
In the case of `Clc1ccc(OCc2ccc3ccccc3n2)cc1` [Example 4, 2-[(4-Chlorophenoxy)methyl]quinoline], the “% Change from Control, TOPICAL, TPA” value in assay [1] was -45%. The “TOPICAL ED50, AA” value in assay [2] was found to be 1.3 mg/ear. Also, the “% Change from Control, TOPICAL, AA” value in assay [2] is -43%. The inhibition at 50 µM in assay [4] and in assay [5] was over 50% in each case.
As for `c1ccc2nc(COc3cccc4cccnc34)ccc2c1` [Example 15, 2-[(8-quinolinyloxy)-methyl]quinoline], the “% Change from Control, TOPICAL, TPA” value in assay [1] was determined as 53%. Also, the “% Change from Control, TOPICAL, AA” value in assay [2] was 52%. In assay [4], the inhibition at 50 µM is over 50%.
As to `Brc1ccc(OCc2ccc3ccccc3n2)cc1` [Example 6, 2-[(4-Bromophenoxy)methyl]quinoline], the “% Change from Control, TOPICAL, TPA” value in assay [1] was -22%. Moreover, the “% Change from Control, TOPICAL, AA” value in assay [2] was -36%. Further, the inhibition at 50 µM in assay [4] and in assay [5] was over 50% in each case.
On to `FC(F)(F)c1cccc(OCc2ccc3ccccc3n2)c1` [Example 16, 2-[[3-(trifluoromethyl)phenoxy]methyl]quinoline], for which, in assay [1], the “% Change from Control, TOPICAL, TPA” value amounted to 22%. The “% Change from Control, TOPICAL, AA” value in assay [2] is recorded as 35%. Moreover, in assay [4], the inhibition at 50 µM was over 50%.
On to `Brc1c(OCc2ccc3ccccc3n2)ccc2ccccc12` [Example 11, 2-[(1-Bromo-2-naphthalenyloxy)methyl]quinoline], for which the inhibition at 50 µM in assay [4] and in assay [5] was over 50% throughout.
With `Brc1ccccc1OCc1ccc2ccccc2n1` [Example 8, 2-[(2-Bromophenoxy)methyl]quinoline], the “% Change from Control, TOPICAL, TPA” value in assay [1] was -14%. Also, the “% Change from Control, TOPICAL, AA” value in assay [2] is reported as -32%. In addition, the inhibition at 50 µM in assay [4] and in assay [5] was over 50% each time.
Turning to `Brc1ccc(SCc2nc3ccccc3s2)cc1` [Example 13], the inhibition at 50 µM in assay [4] and in assay [5] was over 50% in each case.
As for `Fc1cccc(OCc2ccc3ccccc3n2)c1` [Example 5, 2-[(3-Fluorophenoxy)methyl]quinoline], in assay [1], the “TOPICAL ED50, TPA” value turned out to be 1.6 mg/ear and the “% Change from Control, TOPICAL, TPA” value is reported as -47%. Moreover, in assay [2], the “TOPICAL ED50, AA” value worked out at 0.3 mg/ear and the “% Change from Control, TOPICAL, AA” value is given as -63%. This compound yielded a half-inhibitory concentration (IC50) in assay [3] of over 100 µM. Also, in assay [4], the inhibition at 50 µM was over 50% and 9900 nM corresponded to half-maximal inhibition (IC50). In assay [5], this compound displayed an inhibition at 50 µM of over 50% and a half-maximal inhibitory concentration (IC50) of 3.2 µM.
Regarding `Clc1ccc(OCc2ccc3ccccc3n2)cc1Cl` [Example 7, 2-[(3,4-Dichlorophenoxy)methyl]quinoline], in assay [1], the “% Change from Control, TOPICAL, TPA” value is reported as -21%. In addition, the “% Change from Control, TOPICAL, AA” value in assay [2] is recorded as -54%. For the same compound, the inhibition at 50 µM in assay [4] and in assay [5] was over 50% in each case.
Take `Clc1cccc(OCc2ccc3ccccc3n2)c1` [Example 3, 2-[(3-Chlorophenoxy)methyl]quinoline]: the “% Change from Control, TOPICAL, TPA” value in assay [1] is recorded as -60%. In assay [2], the “TOPICAL ED50, AA” value turned out to be 0.3 mg/ear and the “% Change from Control, TOPICAL, AA” value is recorded as -67%. In addition, the IC50 in assay [3] was over 100 µM. In assay [4], the inhibition at 50 µM is over 50% and inhibition was half-maximal at 1500 nM (IC50). In assay [5], this compound registered an inhibition at 50 µM of over 50% and an IC50 of 7.2 µM.
`Brc1cccc(SCc2nc3ccccc3s2)c1` [Example 14]: the inhibition at 50 µM in assay [4] and in assay [5] was over 50% each time.
